Test results published in US20250268856A1, “Pain Relieving Method” (Animal Ethics Pty Ltd, priority 2019, published 2025).
Several values for one entry are separate records, joined by “and”; a condition that tells them apart may be missing. Identical values can stand only once. One block for each molecule: values may come before it.

Experiments:
[1] = Study 2: post-operative mechanical sensory testing of the wound site using Von-Frey filament testing (motor response scores); assay type: in vivo, piglets; details: versus placebo
Procedure: (§1) Study 2: A follow-up study confirmed efficacy of meloxicam analgesic effects when applied to piglets via topical wound application either alone or in combination with tetracaine 2%. Piglets were treated with placebo, meloxicam 0.1%, tetracaine 2% or a combination of tetracaine 2% and meloxicam 1%, otherwise formulated as above, and examined for clinical efficacy via documentation of motor response scores to a) the procedure of castration, and b) pre- and post-operative mechanical sensory testing of the wound site using Von-Frey filament testing.

[2] = Study 1: porcine plasma profiles of tetracaine and meloxicam applied topically to the castration surgical site; assay type: in vivo
Procedure: Dose Calculation, Preparation & Administration: Study animals were dosed according to the Treatment Regime outlined in Table 4 below. No preparation of any of the IVPs was performed other than inversion of each container 2-3 times prior to treatment.
Blood Analysis: Blood samples were collected from allocated animals via anterior vena-caval puncture using 21G, 1.5″ needle attached to 10 mL syringes and transferred immediately into 5 mL lithium heparin blood tubes. Blood samples were processed for extraction of plasma on the day of collection, which for each sample was stored in duplicate, frozen (˜−18° C.). Replicate 1 plasma samples were forwarded frozen to a laboratory for tetracaine and meloxicam analyses after the conclusion of the animal phase.
Study animals were dosed according to the application rates detailed in Table 4. No preparation of any of the IVPs was required prior to dosing.
Castration was performed using a sterile scalpel as per the following process: • 1. Piglet to be gently restrained (for a minimum of 30 seconds prior to incision) in Kerble piglet cradle in order to expose the ano-genital region of the piglet. • 2. Only when piglet is settled, incise scrotum (including tunica) with one single transverse incision to expose and exteriorise each testis; • 3. Immediately apply treatment (40% total dose to each side) to coat the exposed spermatic cord and the cut skin edge. […] Wait 30 seconds; • 5. The testis may then be removed by severing the cord as per routine procedure. Remove each testis as per normal procedure. • 6. Apply the remaining 20% of the total dose evenly of the surface of the surgical wound.

[3] = Study 2: motor response scores to the procedure of castration; assay type: in vivo, piglets; details: during the procedure (castration), versus placebo, topical to open wound
Procedure: as §1

[4] = In-house trials of tetracaine applied directly to the open castration wound; assay type: in vivo, piglets; details: applied to open castration wound 20 seconds prior to severing cordal tissues, 1 ml/kg of 2% or 5% solution
Excerpt: Tetracaine is a rapid onset surface anaesthetic, that is rapidly metabolised by plasma-esterases, such that may induce high potency local effects with minimal systemic effects. […] Topical wound application formulations were thus developed to examine the potential for systemic NSAID analgesic drug (meloxicam) delivery via topical wound application, applied alone, or combined with topical local anaesthetic (tetracaine) to the castration wound in piglets. Topical wound application formulations were developed containing meloxicam alone, tetracaine alone and combinations of meloxicam and tetracaine to examine systemic absorption and clinical effects.

[5] = male, pig, in vivo

Time of peak plasma tetracaine level ([2]; male, pig, in vivo): 1 h
SMILES: CCCCNc1ccc(C(=O)OCCN(C)C)cc1 [Tetracaine]
Motor response scores ([1]; 1 minute following the procedure): significant reduction
Motor response scores ([1]; 1 hour following the procedure): anaesthetic effects were still evident
Motor response scores ([1]; 12 hours following the procedure): rebound hyperaesthesia
Motor response scores [3]: significant reduction
Pain during castration and in the first minutes and 1-2 hours following [4]: effective to ameliorate pain

Meloxicam concentration in porcine plasma ([2]; 1 hr post-treatment, individual piglets, topical to castration wound): 102.9 ng/mL and 118.0 ng/mL
Meloxicam concentration in porcine plasma ([2]; 2 hr post-treatment, individual piglets, topical to castration wound): 126.7 ng/mL and 238.9 ng/mL
Sustained plasma levels of meloxicam ([2]; group level (FIG. 4)): 100 to 200 ng/mL
concentration at 15 min ([2]; male, pig, plasma, topical, 15 min post-treatment, individual piglets, topical to castration wound): 86.9 ng/mL
concentration at 30 min ([2]; male, pig, plasma, topical, 30 min post-treatment, individual piglets, topical to castration wound): 109 ng/mL
concentration at 1 hr ([2]; male, pig, plasma, topical, 1 hr post-treatment, individual piglets, topical to castration wound): 190 ng/mL
concentration at 2 hr ([2]; male, pig, plasma, topical, 2 hr post-treatment, individual piglets, topical to castration wound): 126 ng/mL
Time of peak plasma meloxicam level ([2]; post-treatment, group level (FIGS. 4, 5)): 4 h
SMILES: Cc1cnc(NC(=O)C2=C(O)c3ccccc3S(=O)(=O)N2C)s1 [Meloxicam]
Meloxicam concentration in porcine plasma ([2]; 15 min post-treatment, individual piglets, topical to castration wound): 144.8 ng/mL and 119.8 ng/mL and 81.8 ng/mL and 88.2 ng/mL
Meloxicam concentration in porcine plasma ([2]; 30 min post-treatment, individual piglets, topical to castration wound): 166.0 ng/mL and 94.6 ng/mL and 101.3 ng/mL and 104.8 ng/mL
Meloxicam concentration in porcine plasma ([2]; 4 hr post-treatment, individual piglets, topical to castration wound): 100.9 ng/mL and 458.7 ng/mL and 63.3 ng/mL and 230.0 ng/mL and 244.6 ng/mL and 113.2 ng/mL

Period plasma levels remained at those levels [5]: 24 h
SMILES: CCCCN1CCCCC1C(=O)Nc1c(C)cccc1C (stereo not drawn) [bupivacaine]
